Experimental data reported in patent publication US12011444B2, “N-substituted indole derivatives as PGE2 receptor modulators” (Idorsia Pharmaceuticals Ltd, priority 2015, dated 2024).

How the values were obtained:
[1] = molecular target: PTGER2 (EP2) (Homo sapiens (Human), UniProt P43116); experiment: hEP2 b-arrestin assay (PathHunter HEK 293 PTGER2 b-arrestin cells); format: cell-based
Procedure, shortened: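 Readout is β-galactosidase complementation luminescence, expressed as percent of DMSO control (duplicates). PathHunter HEK293 EP2/β-arrestin 2 cells, grown 24 h, received compound for 15 min at 37 °C before a 120 min challenge with PGE2 at 5 μM final, followed by 1 h detection at room temperature.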

[2] = molecular target: PTRGER4 (EP4) (Homo sapiens (Human), UniProt P35408); experiment: hEP4 b-arrestin assay (PathHunter HEK 293 PTGER4 b-arrestin cells); format: cell-based
Procedure, shortened: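 Antagonist mode: compound is given 15 min at 37 °C, then 20 nM (final) PGE2 for 120 min, in HEK293 cells stably expressing EP4 fused to ProLink and β-arrestin 2 fused to EA. Recruitment read as β-gal luminescence after 1 h reagent at room temperature, as percent of DMSO control.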

[3] = antagonistic activity on hEP2, mean where measured multiple times
[4] = antagonistic activity on hEP4, mean where measured multiple times
[5] = hEP2 b-arrestin assay (values without asterisk)
[6] = hEP4 b-arrestin assay (values without asterisk)

PTRGER4 (EP4), sequence (P35408 whole entry, looked up, the tested form may be a part): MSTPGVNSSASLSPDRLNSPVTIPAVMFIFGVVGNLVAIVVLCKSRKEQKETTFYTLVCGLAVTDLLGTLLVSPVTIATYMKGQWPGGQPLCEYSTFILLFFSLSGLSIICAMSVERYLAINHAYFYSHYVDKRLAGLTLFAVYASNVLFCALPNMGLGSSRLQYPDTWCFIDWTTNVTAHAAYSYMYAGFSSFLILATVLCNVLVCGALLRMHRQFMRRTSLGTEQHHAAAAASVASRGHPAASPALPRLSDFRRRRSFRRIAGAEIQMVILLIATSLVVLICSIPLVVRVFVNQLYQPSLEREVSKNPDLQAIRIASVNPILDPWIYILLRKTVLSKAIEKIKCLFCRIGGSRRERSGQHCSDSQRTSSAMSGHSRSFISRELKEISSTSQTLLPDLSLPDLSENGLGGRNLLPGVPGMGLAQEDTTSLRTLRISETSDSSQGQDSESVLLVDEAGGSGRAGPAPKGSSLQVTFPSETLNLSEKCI
PTGER2 (EP2), sequence (P43116 whole entry): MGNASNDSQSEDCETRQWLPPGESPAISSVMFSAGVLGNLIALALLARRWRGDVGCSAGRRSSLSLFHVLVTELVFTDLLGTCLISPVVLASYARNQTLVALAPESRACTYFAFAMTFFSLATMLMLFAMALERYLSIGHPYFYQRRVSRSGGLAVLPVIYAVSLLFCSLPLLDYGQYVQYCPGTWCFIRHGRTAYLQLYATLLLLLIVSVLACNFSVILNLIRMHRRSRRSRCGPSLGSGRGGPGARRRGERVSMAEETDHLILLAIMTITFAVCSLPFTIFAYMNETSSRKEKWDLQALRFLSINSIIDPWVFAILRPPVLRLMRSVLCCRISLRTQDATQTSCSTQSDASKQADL

| IC50 [1, 3] | IC50 [2, 4] | IC50 [1, 5] | IC50 [2, 6] | SMILES |
| --- | --- | --- | --- | --- |
| 0.037 µM | 0.548 µM | – | – | COc1ccc(F)c2c1cc(C)n2CCNc1cc(-c2csc(CO)c2)ncn1 [compound 101] |
| – | – | 0.004 µM | 0.02 µM | CCOc1cc(OCCC(=O)O)cc(-c2cc(NCCn3c(C#N)cc4c(OC)ccc(F)c43)ncn2)c1 [Example 926, 3-(3-{6-[2-(2-Cyano-7-fluoro-4-methoxy-indol-1-yl)-ethylamino]-pyrimidin-4-yl}-5-ethoxy-phenoxy)-propionic acid] |
| – | – | 0.001 µM | 0.007 µM | CCOc1cc(-c2cc(NCCn3c(C)cc4c(Cl)cc(Cl)c(F)c43)ncn2)sc1C(=O)O [Example 868, 5-{6-[2-(4,6-Dichloro-7-fluoro-2-methyl-indol-1-yl)-ethylamino]-pyrimidin-4-yl}-3-ethoxy-thiophene-2-carboxylic acid] |
| – | – | 0.005 µM | 0.017 µM | CCOc1nc(-c2cc(NCCn3c(C)cc4c(OC)ccc(F)c43)ncn2)sc1C(=O)O [Example 1034, 4-Ethoxy-2-{6-[2-(7-fluoro-4-methoxy-2-methyl-indol-1-yl)-ethylamino]-pyrimidin-4-yl}-thiazole-5-carboxylic acid] |
| 0.016 µM | 0.588 µM | – | – | CSc1cc(-c2cc(NCCn3c(C)cc4c(Cl)ccc(Cl)c43)ncn2)cc(Cl)c1C(=O)O [compound 142, 2-Chloro-4-{6-[2-(4,7-dichloro-2-methyl-indol-1-yl)-ethylamino]-pyrimidin-4-yl}-6-methylsulfanyl-benzoic acid] |
| – | – | 0.031 µM | 0.003 µM | CCOc1cc(-c2cc(NCCn3c(C#N)cc4c(OC)ccc(F)c43)ncn2)ccc1OCCC(=O)O [Example 927, 3-(4-{6-[2-(2-Cyano-7-fluoro-4-methoxy-indol-1-yl)-ethylamino]-pyrimidin-4-yl}-2-ethoxy-phenoxy)-propionic acid] |
| 0.065 µM | 0.885 µM | – | – | COc1ccc(Cl)c2c1cc(C)n2CCNc1cc(-c2cc(C)c(C(=O)O)c(F)c2)ncn1 [compound 276] |
| – | – | 0.02 µM | 0.011 µM | CCOC(=O)c1csc(-c2cc(NCCn3c(C#N)cc4c(OC)ccc(F)c43)ncn2)c1 [Example 1009, 5-{6-[2-(2-Cyano-7-fluoro-4-methoxy-indol-1-yl)-ethylamino]-pyrimidin-4-yl}-thiophene-3-carboxylic acid ethyl ester] |
| 0.018 µM | 0.224 µM | – | – | CCOc1cc(-c2cc(NCCn3c(C)cc4c(OC)ccc(F)c43)ncn2)ccc1C(=O)O [Example 326, 2-ethoxy-4-{6-[2-(7-fluoro-4-methoxy-2-methyl-indol-1-yl)-ethylamino]-pyrimidin-4-yl}-benzoic acid] |
| – | – | 0.03 µM | 0.023 µM | COC(=O)c1ccc(-c2cc(NCCn3c(C#N)cc4c(OC)ccc(F)c43)ncn2)cc1F [Example 999, 4-{6-[2-(2-Cyano-7-fluoro-4-methoxy-indol-1-yl)-ethylamino]-pyrimidin-4-yl}-2-fluoro-benzoic acid methyl ester] |
| – | – | 0.005 µM | 0.003 µM | CCOc1cc(-c2cc(NCCn3c(C#N)cc4c(OC)ccc(F)c43)ncn2)sc1C(=O)OCc1oc(=O)oc1C [Example 1047, 5-{6-[2-(2-Cyano-7-fluoro-4-methoxy-indol-1-yl)-ethylamino]-pyrimidin-4-yl}-3-ethoxy-thiophene-2-carboxylic acid 5-methyl-2-oxo-[1,3]dioxol-4-ylmethyl ester] |
| 0.086 µM | 0.758 µM | – | – | Cc1ccc(F)c2c1cc(C)n2CCNc1cc(-c2ccc(-c3ncc[nH]3)cc2)ncn1 [compound 71] |
| 0.013 µM | 0.058 µM | – | – | CCc1cc(-c2cc(NCCn3c(C)cc4c(C)ccc(F)c43)ncn2)sc1C(=O)O [compound 103] |
| 0.056 µM | 0.05 µM | – | – | CCc1cc(-c2cc(NCCn3c(C)cc4c(OC)ccc(F)c43)ncn2)cc(Cl)c1C(=O)O [compound 346] |
| 0.245 µM | 0.906 µM | – | – | Cc1ccc(F)c2c1cc(C)n2CCNc1cc(-c2ccc(N3CCCS3(=O)=O)cc2)ncn1 [compound 316] |
| 0.002 µM | 0.003 µM | – | – | CCOc1cc(-c2cc(NCCn3c(C#N)cc4c(OC)cc(F)cc43)ncn2)sc1C(=O)O [compound 391] |
| – | – | 0.007 µM | 0.004 µM | CCOc1cc(-c2cc(NCCn3c(C#N)cc4c(OC)ccc(F)c43)ncn2)ccc1OCC(=O)O [Example 808, (4-{6-[2-(2-Cyano-7-fluoro-4-methoxy-indol-1-yl)-ethylamino]-pyrimidin-4-yl}-2-ethoxy-phenoxy)-acetic acid] |
| 0.096 µM | 0.299 µM | – | – | Cc1cc2c(Cl)ccc(Cl)c2n1CCNc1cc(-c2ccc3[nH]c(C(=O)O)cc3c2)ncn1 [compound 198] |
| – | – | 0.421 µM | 0.121 µM | COc1ccc(F)c2c1cc(C#N)n2CCNc1cc(-c2ccc(C3(OC)COC3)s2)ncn1 [Example 860, 7-Fluoro-4-methoxy-1-(2-{6-[5-(3-methoxy-oxetan-3-yl)-thiophen-2-yl]-pyrimidin-4-ylamino}-ethyl)-1H-indole-2-carbonitrile] |

| IC50 [1, 3] | IC50 [2, 4] | IC50 [1, 5] | IC50 [2, 6] | SMILES |
| --- | --- | --- | --- | --- |
| – | – | 0.02 µM | 0.066 µM | CCOc1cc(-c2cc(NCCn3c(C#N)cc4c(C)c(F)c(F)cc43)ncn2)ccc1NCC(=O)O [Example 895, (4-{6-[2-(2-Cyano-5,6-difluoro-4-methyl-indol-1-yl)-ethylamino]-pyrimidin-4-yl}-2-ethoxy-phenylamino)-acetic acid] |
| – | – | 0.012 µM | 0.004 µM | COc1ccc(F)c2c1cc(C#N)n2CCNc1cc(-c2ccc(-c3c(O)c(=O)c3=O)cc2)ncn1 [Example 933, 7-Fluoro-1-(2-{6-[4-(2-hydroxy-3,4-dioxo-cyclobut-1-enyl)-phenyl]-pyrimidin-4-ylamino}-ethyl)-4-methoxy-1H-indole-2-carbonitrile] |
| – | – | 0.006 µM | 0.003 µM | COc1cc(-c2cc(NCCn3c(C#N)cc4c(OC)ccc(F)c43)ncn2)ccc1-c1cc(O)no1 [Example 855, 7-Fluoro-1-(2-{6-[4-(3-hydroxy-isoxazol-5-yl)-3-methoxy-phenyl]-pyrimidin-4-ylamino}-ethyl)-4-methoxy-1H-indole-2-carbonitrile] |
| – | – | 0.015 µM | 0.027 µM | CCSc1cc(-c2cc(NCCn3c(C#N)cc4c(C)ccc(F)c43)ncn2)ccc1C(=O)O [Example 951, 4-{6-[2-(2-Cyano-7-fluoro-4-methyl-indol-1-yl)-ethylamino]-pyrimidin-4-yl}-2-ethylsulfanyl-benzoic acid] |
| – | – | 0.021 µM | 0.037 µM | CCOc1cc(-c2cc(NCCn3c(C#N)cc4c(C)cc(F)c(F)c43)ncn2)ccc1C(=O)O [Example 956, 4-{6-[2-(2-Cyano-6,7-difluoro-4-methyl-indol-1-yl)-ethylamino]-pyrimidin-4-yl}-2-ethoxy-benzoic acid] |
| 0.139 µM | 0.972 µM | – | – | COc1c(-c2cc(NCCn3c(C)cc4c(OC)ccc(F)c43)ncn2)csc1C(=O)O [compound 215] |
| – | – | 0.019 µM | 0.017 µM | COc1ccc(F)c2c1cc(C#N)n2CCNc1cc(-c2ccc(-c3nc(=O)[nH]o3)cc2)ncn1 [Example 831, 7-Fluoro-1-(2-{6-[4-(3-oxo-2,3-dihydro-[1,2,4]-oxadiazol-5-yl)-phenyl]-pyrimidin-4-ylamino}-ethyl)-4-methoxy-1H-indole-2-carbonitrile] |
| – | – | 0.005 µM | 0.001 µM | CCOc1cc(-c2cc(NCCn3c(C#N)cc4c(OC)ccc(F)c43)ncn2)ccc1NC(=O)C(=O)O [Example 853, N-(4-{6-[2-(2-Cyano-7-fluoro-4-methoxy-indol-1-yl)-ethylamino]-pyrimidin-4-yl}-2-ethoxy-phenyl)-oxalamic acid] |
| 0.005 µM | 0.046 µM | – | – | COc1ccc(F)c2c1cc(C)n2CCNc1cc(-c2cc(C)c(C(=O)O)s2)ncn1 [compound 107] |
| 0.32 µM | 0.873 µM | – | – | COc1cc(F)cc2c1cc(C)n2CCNc1cc(-c2ccc(N3CCCC3=O)cc2)ncn1 [compound 317] |
| 0.009 µM | 0.999 µM | – | – | CCOc1cc(-c2cc(NCCn3c(C)cc4c(F)c(F)ccc43)ncn2)ccc1C(=O)O [compound 278] |
| 0.005 µM | 0.04 µM | – | – | CCOc1cc(-c2cc(NCCn3c(C)cc4c(Cl)cc(Cl)cc43)ncn2)sc1C(=O)O [compound 238] |
| 0.012 µM | 0.896 µM | – | – | CCOc1cc(-c2cc(NCCn3c(C)cc4ccc(OC)cc43)ncn2)ccc1C(=O)O [compound 255] |
| 0.089 µM | 0.31 µM | – | – | Cc1cc(F)cc2c1cc(C)n2CCNc1cc(-c2ccc(-c3ccns3)cc2)ncn1 [compound 84] |
| 0.085 µM | 0.29 µM | – | – | COc1cccc2c1cc(C)n2CCNc1cc(-c2ccc3nc(C)oc3c2)ncn1 [compound 60] |
| 0.023 µM | 0.287 µM | – | – | COc1ccc(F)c2c1cc(C)n2CCNc1cc(-c2ccc(-c3ncc[nH]3)cc2)ncn1 [compound 192, [2-(7-Fluoro-4-methoxy-2-methyl-indol-1-yl)-ethyl]-{6-[4-(1H-imidazol-2-yl)-phenyl]-pyrimidin-4-yl}-amine] |
| 0.02 µM | 0.198 µM | – | – | Cc1cc(F)c(F)c2c1cc(C)n2CCNc1cc(-c2ccc(-c3ncno3)cc2)ncn1 [compound 187, [2-(6,7-Difluoro-2,4-dimethyl-indol-1-yl)-ethyl]-[6-(4-[1,2,4]oxadiazol-5-yl-phenyl)-pyrimidin-4-yl]-amine] |
| – | – | 0.025 µM | 0.061 µM | COc1ccc(F)c2c1cc(C#N)n2CCNc1cc(-c2ccc(OCC(=O)O)c(Cl)c2)ncn1 [Example 841, (2-Chloro-4-{6-[2-(2-cyano-7-fluoro-4-methoxy-indol-1-yl)-ethylamino]-pyrimidin-4-yl}-phenoxy)-acetic acid] |
| 0.094 µM | 0.328 µM | – | – | Cc1ccc(F)c2c1cc(C)n2CCNc1cc(-c2ccc(CO)c(Cl)c2)ncn1 [compound 20] |
